Measurements from patent US10960084B2, “Modulation of fluid intake” (California Institute of Technology, priority 2018, dated 2021).
“Also recorded” adds a separate entry of the source.

What was measured:
Format in all cases: in vivo, mice
MnPO^GLP1r neurons = assay: Drinking assays with chemogenetic inhibition of MnPO^GLP1r neurons by CNO; details: hM4Di in MnPO^GLP1r
Protocol: For water-restriction experiments, animals were provided with 1 mL of water daily. For food restriction experiments, animals were provided 0.5 pellets/20 g body weight daily. All assays were performed in a modified lickometer as described previously^[35] or Biodaq monitoring system (Research Diets Inc). For all photometry assays, animals were acclimatized for 10-15 min in the lickometer cage before stimuli were given.
Long-term access assays: Optogenetic Testing—For FIGS. 1L-N and FIGS. 7L-O, satiated mice were given ad libitum access to water for 20 min with photostimulation. Photostimulation was delivered for 1-s followed by 3-s intervals throughout the behavioral sessions. For FIGS. 2J-M and FIGS. 11C-E, mice were given access to water for 20 min after 24 h water-restriction, and photostimulation was delivered for the first 10 min. For feeding assays (FIGS. 2J-M), animals were single-housed in Biodaq cages after 24 h food-restriction, and chow intake was measured for 20 min with or without light stimulation. For acute inhibition experiments, mice were given access to 150 mM NaCl (FIGS. 5D-E, FIGS. 13E-F), water (FIGS. 1L-N, FIGS. 7L-O, FIGS. 13A-D, FIGS. 13G-H) for 20-30 min after 24 h water-restriction or 300 mM sucrose (FIGS. 1L-N, FIGS. 7L-O) after food-restriction. For all acute inhibition experiments, CNO was injected at 10 mg/kg body weight, 30 min prior to the start of the behavior session. For acute activation experiments, CNO was injected at 1 mg/kg body weight (FIGS. 12L-M), 30 min prior to the start of the behavior session. For FIG. 3A, FIGS. 9A-C, and FIG. 13L, water or saline access was provided for 30 min after 24 hours of water restriction. For FIGS. 4A-B, water or HydroGel (ClearH2O) in a cup was provided for 30 min after 24 and 36 hours of water restriction, respectively. The weight of the cup was measured before and after the behavior session. For FIGS. 4K-L, 0.5 pellets of chow was provided for 30 min after 24 h food-restriction. The entire session was recorded using a camera at 30 fps and ingestion episodes were manually annotated.

SFO^nNOS neurons [1] = assay: Acute activation of SFO^nNOS neurons by hM3Dq-mCherry with CNO; details: hM3Dq-mCherry in SFO^nNOS; intraperitoneal CNO 1 mg/kg
Protocol: Long-term access assays: Optogenetic Testing—For FIGS. 1L-N and FIGS. 7L-O, satiated mice were given ad libitum access to water for 20 min with photostimulation. Photostimulation was delivered for 1-s followed by 3-s intervals throughout the behavioral sessions. For FIGS. 2J-M and FIGS. 11C-E, mice were given access to water for 20 min after 24 h water-restriction, and photostimulation was delivered for the first 10 min. For feeding assays (FIGS. 2J-M), animals were single-housed in Biodaq cages after 24 h food-restriction, and chow intake was measured for 20 min with or without light stimulation. […] The weight of the cup was measured before and after the behavior session. […] The entire session was recorded using a camera at 30 fps and ingestion episodes were manually annotated.
We measured bulk fluorescence signals using fiber photometry as previously described^[26]. […] The fluorescence signal was then focused onto a femtowatt photoreceiver (Newport, Model 2151). […] The licks from the lickometer were simultaneously recorded as real-time TTL signals to the RP2.1. Fluorescence changes were analyzed using custom MATLAB (MathWorks) code as described previously^[26]. […] The resultant ΔF/F was calculated as (raw 490 nm signal-fitted 405 nm signal)/(fitted 405 nm signal). For brief access tests, the Area Under Curve (ΣΔFduring) was quantified by integrating the fluorescence signals during the bout. […]

SFO^nNOS neurons [2] = assay: Salt/Mannitol loading with fiber photometry of SFO^nNOS/MnPO^nNOS neurons and drinking
Protocol: Salt/Mannitol Loading Experiments: 150 μL/300 μL of 2 M NaCl or 300 μL of 2 M Mannitol was injected intraperitoneally at the end of the acclimatization period. For FIGS. 1P-T and FIGS. 7P-S, CNO or vehicle (water) was injected 10 min prior to NaCl/Mannitol injection. We measured bulk fluorescence signals using fiber photometry as previously described^[26]. Briefly, 490 nm and 405 nm LEDs ([…] and […]) were collimated and delivered to the brain. The light intensity was kept less than 100 μW during all recordings. The fluorescence signal was then focused onto a femtowatt photoreceiver (Newport, Model 2151). The modulation and demodulation were done with an RP2.1 real time processor (Tucker-Davis Technologies) running custom software. The licks from the lickometer were simultaneously recorded as real-time TTL signals to the RP2.1. Fluorescence changes were analyzed using custom MATLAB (MathWorks) code as described previously^[26]. Data were extracted and subjected to a low pass filter at 1.8 Hz. A linear function was used to scale up the 405 nm channel signal to the 490 nm channel signal to get the fitted 405 nm signal. The resultant ΔF/F was calculated as (raw 490 nm signal-fitted 405 nm signal)/(fitted 405 nm signal). For brief access tests, the Area Under Curve (ΣΔFduring) was quantified by integrating the fluorescence signals during the bout. For all bouts, the mean fluorescence for 30 s prior to the first lick was calculated and subtracted from the entire session. ΔF changes (ΔFpost-ΔFpre) were calculated by subtracting the mean fluorescence signal during the 2-s period before the first lick from the mean signal during the 2-s at 1 min after the bout. For displaying traces, the fluorescence data was time-binned by a factor of 2.5 times the sampling frequency and down-sampled to 1 Hz. For long-term tests, the Area Under Curve was calculated for 2.5 min after the start of the bout. […] For […]), the first bout at the start of the session and the last bout within 10 min of access were used. The AUC for the PSTHs were calculated during the first or the last 15 seconds.

[3] = GCaMP6s fiber photometry, MnPO^nNOS inhibited by CNO

C[N+]1([O-])CCN(C2=Nc3cc(Cl)ccc3Nc3ccccc32)CC1 [CNO, clozapine-N-oxide]
water or saline intake under satiated conditions (MnPO^GLP1r neurons; satiated): did not elevate water or saline intake | total water intake (30 min) (MnPO^GLP1r neurons; water-restricted animals): minor effect | water consumption at the onset of drinking (first 1 min) (MnPO^GLP1r neurons; water-restricted animals): significantly increases water consumption at the onset of drinking | total amount of isotonic saline intake (MnPO^GLP1r neurons; water-restricted, 30 min, CNO 10 mg/kg vs vehicle): strikingly increased; also recorded: causes overdrinking of isotonic saline | duration of saline intake (time spent for drinking) (MnPO^GLP1r neurons; water-restricted, 30 min, CNO vs vehicle): strikingly increased | water drinking (SFO^nNOS neurons [1]): induce water drinking | calcium increases / activity of SFO^nNOS neurons by mannitol-induced osmotic stress (SFO^nNOS neurons [2]; [3]): unaffected; also recorded: without changing the activity | calcium increases in SFO^nNOS neurons by NaCl-induced osmotic stress (SFO^nNOS neurons [2]; [3]): unaffected | drinking behavior after Mannitol injection (SFO^nNOS neurons [2]; hM4Di in MnPO^nNOS, CNO 10 min prior to intraperitoneal Mannitol): intensely suppressed drinking responses; also recorded: drastically suppressed drinking behavior | drinking behavior after NaCl injection (SFO^nNOS neurons [2]; hM4Di in MnPO^nNOS, CNO 10 min prior to intraperitoneal NaCl): intensely suppressed drinking responses; also recorded: drastically suppressed drinking behavior
